The nature of the assay: Inhibition of [35S]GTP-gamma-S, binding in guinea pig caudate stimulated by SNC80 (Opioid receptor delta 1). In general terms: GTPγS is a poorly hydrolysed GTP analogue; its binding reports G protein activation.

As usually defined, the Ki is a dissociation constant, usually derived from enzyme kinetics or from competition with a known ligand.

For the compound `C[C@H]1C2CCCC1(c1cccc(O)c1)CCN2CCc1ccccc1` (stereo partly drawn) [3-((R)-9-Methyl-2-phenethyl-2-aza-bicyclo[3.3.1]non-5-yl)-phenol], the Ki is 13 nM.

The values above are taken from BindingDB's records for doi:10.1021/jm980290i (Research Triangle Institute, 1998).
